Measured values taken from patent US11547681B2, “N-acylethanolamide derivatives and uses thereof” (ELIEM THERAPEUTICS, INC., priority 2016, dated 2023).
Where two headings read alike, the source gives them in different places.

Experiment: Simulated intestinal fluid (SIF) stability in the presence of various enzymes
Assay type: in vitro ADME
Settings: for % Remaining of Initial: 1 μM, n = 1
Outline: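 Test article at 1 μM final was dosed into pre-warmed (37 °C) simulated intestinal fluid, potassium phosphate buffer at pH 6.8, spiked with individual enzymes. Timed samples were held at 4 °C, then centrifuged and quantified against calibration standards in matched matrix.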

With CCCCCCCCCCCCCCCC(=O)NCCOC(=O)CCC(=O)OC(COC(=O)CCC)COC(=O)CCC [Compound I-16] the “% Remaining of Initial” value (SIF + Carboxypeptidase A, 0 min) was 100%, the “% Remaining of Initial” value (SIF + Carboxypeptidase A, 15 min) was 88% and the “% Remaining of Initial” value (SIF + Carboxypeptidase A, 30 min) was 74%. For the same molecule, the “% Remaining of Initial” value (SIF + Carboxypeptidase A, 60 min) was 60%, the “% Remaining of Initial” value (SIF + Carboxypeptidase A, 120 min) was 32% and the “% Remaining of Initial” value (SIF + Carboxypeptidase B, 0 min) was 100%. For the same molecule, the “% Remaining of Initial” value (SIF + Carboxypeptidase B, 15 min) was 94%, the “% Remaining of Initial” value (SIF + Carboxypeptidase B, 30 min) was 87% and the “% Remaining of Initial” value (SIF + Carboxypeptidase B, 60 min) was 68%. For the same molecule, the “% Remaining of Initial” value (SIF + Carboxypeptidase B, 120 min) was 37%, the “% Remaining of Initial” value (SIF + Chymotrypsin, 0 min) was 100% and the “% Remaining of Initial” value (SIF + Chymotrypsin, 15 min) was 103%. The “% Remaining of Initial” value (SIF + Chymotrypsin, 30 min) was 90%, the “% Remaining of Initial” value (SIF + Chymotrypsin, 60 min) was 68% and the “% Remaining of Initial” value (SIF + Chymotrypsin, 120 min) was 35%. For the same molecule, the “% Remaining of Initial” value (SIF + Elastase, 0 min) was 100%, the “% Remaining of Initial” value (SIF + Elastase, 15 min) was 72% and the “% Remaining of Initial” value (SIF + Elastase, 30 min) was 50%. The “% Remaining of Initial” value (SIF + Elastase, 60 min) was 27%, the “% Remaining of Initial” value (SIF + Elastase, 120 min) was 7.1% and the “% Remaining of Initial” value (SIF + Trypsin, 0 min) was 100%. The “% Remaining of Initial” value (SIF + Trypsin, 15 min) was 89%, the “% Remaining of Initial” value (SIF + Trypsin, 30 min) was 82% and the “% Remaining of Initial” value (SIF + Trypsin, 60 min) was 62%. For the same molecule, the “% Remaining of Initial” value (SIF + Trypsin, 120 min) was 37%, the half-life at 1 μM (simulated intestinal fluid with carboxypeptidase A, pH 6.8, SIF + Carboxypeptidase A, read-out: Half-life) was 1.25 h and the half-life at 1 µM (simulated intestinal fluid with carboxypeptidase B, pH 6.8, SIF + Carboxypeptidase B, read-out: Half-life) was 1.48 h. It also gave a half-life at 1 μM (simulated intestinal fluid with chymotrypsin, pH 6.8, SIF + Chymotrypsin, read-out: Half-life) of 1.4 h, a half-life at 1 μM (simulated intestinal fluid with elastase, pH 6.8, SIF + Elastase, read-out: Half-life) of 0.517 h and a half-life at 1 μM (simulated intestinal fluid with trypsin, pH 6.8, SIF + Trypsin, read-out: Half-life) of 1.42 h.
